Target: T1, hFXR (Homo sapiens, UniProt Q96RI1)
T1 construct: expressed in transfected cells; host or cells: CV-1 cells
T1 sequence (Q96RI1 1-486): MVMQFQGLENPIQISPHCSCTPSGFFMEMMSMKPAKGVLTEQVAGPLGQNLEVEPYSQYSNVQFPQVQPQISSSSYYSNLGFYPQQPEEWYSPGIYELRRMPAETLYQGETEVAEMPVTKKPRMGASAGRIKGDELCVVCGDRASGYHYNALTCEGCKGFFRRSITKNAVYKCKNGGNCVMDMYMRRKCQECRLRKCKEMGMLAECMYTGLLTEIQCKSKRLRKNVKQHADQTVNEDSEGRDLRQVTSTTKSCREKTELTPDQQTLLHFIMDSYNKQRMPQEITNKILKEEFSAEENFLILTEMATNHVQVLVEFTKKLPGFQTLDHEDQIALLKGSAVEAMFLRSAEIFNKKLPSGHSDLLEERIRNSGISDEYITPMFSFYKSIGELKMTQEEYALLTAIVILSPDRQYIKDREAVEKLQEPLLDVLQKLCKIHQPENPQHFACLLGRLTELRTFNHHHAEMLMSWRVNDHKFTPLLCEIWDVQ
T1 sequence (P19793 1-462 partner): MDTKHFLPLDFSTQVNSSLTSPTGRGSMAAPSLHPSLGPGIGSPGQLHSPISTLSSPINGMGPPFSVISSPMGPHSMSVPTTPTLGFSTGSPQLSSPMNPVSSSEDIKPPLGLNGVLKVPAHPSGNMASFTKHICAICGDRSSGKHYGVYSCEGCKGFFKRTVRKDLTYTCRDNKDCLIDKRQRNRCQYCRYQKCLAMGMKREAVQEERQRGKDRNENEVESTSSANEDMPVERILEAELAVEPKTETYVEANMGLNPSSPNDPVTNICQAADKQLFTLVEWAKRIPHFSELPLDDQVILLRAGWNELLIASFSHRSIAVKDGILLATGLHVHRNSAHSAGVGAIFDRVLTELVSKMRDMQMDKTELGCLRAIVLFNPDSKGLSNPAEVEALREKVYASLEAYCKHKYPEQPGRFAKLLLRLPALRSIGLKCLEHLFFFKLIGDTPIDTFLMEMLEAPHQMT
Test: In Vitro FXR Assay (TK): TK-ECRE-luc reporter in transfected CV-1 cells
Assay type: cell-based
Conditions: 18 hrs, luminescence, maximum efficacy of <25% of the Fexarmine control classified as '+'
Summary of the method: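 Luciferase read-out after 18 h compound exposure of CV-1 cells carrying transfected hFXR plus hRXR expression plasmids, TK-ECRE-luc reporter and pCMX-YFP. Cells cultured in charcoal-stripped FBS before transfection; compounds serially diluted in DMSO.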

| Compound | EC50 [nM] |
| --- | --- |
| COc1ccc([C@H]2CC[C@H](CN(c3cccc(-c4cnn(C5CC5)c4)c3)C(=O)[C@H]3CC[C@H](OC(=O)NC4CN(C(=O)OC(C)(C)C)C4)CC3)CC2)cc1C [Compound 4.17, tert-Butyl 3-((((trans-4-((3-(1-cyclopropyl-1H-pyrazol-4-yl)phenyl)((trans-4-(4-methoxy-3-methylphenyl)cyclohexyl)methyl)carbamoyl)cyclohexyl)oxy)carbonyl)amino)azetidine-1-carboxylate] | ≤ 250 |
| COc1ccc(C23CCC(CN(c4cccc(-c5cnn(C6CC6)c5)c4)C(=O)[C@H]4CC[C@H](OC(=O)NCCO)CC4)(CC2)CC3)cc1C [Compound 4.04, 4-((3-(1-Cyclopropyl-1H-pyrazol-4-yl)phenyl)((4-(4-methoxy-3-methylphenyl)bicyclo[2.2.2]octan-1-yl)methyl)carbamoyl)cyclohexyl (2-hydroxyethyl)trans-carbamate] | ≤ 250 |
| CNC(=O)O[C@H]1CC[C@H](C(=O)N(C[C@H]2CC[C@H](c3ccc(OC)c(C#N)c3)CC2)c2cc(-c3coc(C4CC4)n3)ccn2)CC1 [Compound 5.39, trans-4-(((trans-4-(3-Cyano-4-methoxyphenyl)cyclohexyl)methyl)(4-(2-cyclopropyloxazol-4-yl)pyridine-2-yl)carbamoyl)cyclohexyl methylcarbamate] | ≤ 250 |
| COc1ccc([C@H]2CC[C@H](CN(c3cccc(-c4cnn(C(C)C)c4)c3)C(=O)[C@H]3CC[C@H](OC(=O)N4CC(CO)C4)CC3)CC2)nc1C [Compound 7.61, trans-4-((3-(1-Isopropyl-1H-pyrazol-4-yl)phenyl)((trans-4-(5-methoxy-6-methylpyridin-2-yl)cyclohexyl)methyl)carbamoyl)cyclohexyl 3-(hydroxymethyl)azetidine-1-carboxylate] | ≤ 250 |
| COC(=O)NC[C@H]1CC[C@H](C(=O)N(C[C@H]2CC[C@H](c3ccc(OC)c(C)c3)CC2)c2cccc(-c3cnc(OC)s3)c2)CC1 [Compound 25.07, Methyl ((trans-4-(((trans-4-(4-methoxy-3-methylphenyl)cyclohexyl)methyl)(3-(2-methoxythiazol-5-yl)phenyl)carbamoyl)cyclohexyl)methyl)carbamate] | ≤ 250 |
| COc1ncc(-c2cccc(N(C[C@H]3CC[C@H](c4ccc(OC)c(C)c4)CC3)C(=O)[C@H]3CC[C@H](C(=O)NS(C)(=O)=O)CC3)c2)s1 [Compound 24.06, trans-N^1-((trans-4-(4-Methoxy-3-methylphenyl)cyclohexyl)methyl)-N^1-(3-(2-methoxythiazol-5-yl)phenyl)-N^4-(methylsulfonyl) cyclohexane-1,4-dicarboxamide] | ≤ 250 |
| COc1ccc([C@H]2CC[C@H](CN(c3cc(-c4cnc(C5CC5)s4)ccn3)C(=O)[C@H]3CC[C@H](OC(=O)N4CC(O)C4)CC3)CC2)nc1C [Compound 7.06, trans-4-((4-(2-Cyclopropylthiazol-5-yl)pyridin-2-yl)((trans-4-(5-methoxy-6-methylpyridin-2-yl)cyclohexyl)methyl)carbamoyl)cyclohexyl 3-hydroxyazetidine-1-carboxylate] | ≤ 250 |
| COc1ccc([C@H]2CC[C@H](CN(c3cc(-c4coc(C5CC5)n4)ccn3)C(=O)[C@H]3CC[C@H](OC(=O)N4CC(C#N)C4)CC3)CC2)nc1C [Compound 7.88, trans-4-((4-(2-Cyclopropyloxazol-4-yl)pyridine-2-yl)((trans-4-(5-methoxy-6-methylpyridin-2-yl)cyclohexyl)methyl)carbamoyl)cyclohexyl 3-cyanoazetidine-1-carboxylate] | ≤ 250 |
| COc1ccc([C@H]2CC[C@H](CN(c3cccc(-c4cnc(C5CC5)s4)c3)C(=O)[C@H]3CC[C@H](C(=O)O)CC3)CC2)cc1Cl [Compound 17.03, trans-4-(((trans-4-(3-Chloro-4-methoxyphenyl)cyclohexyl)methyl)(3-(2-cyclopropylthiazol-5-yl)phenyl)carbamoyl)cyclohexanecarboxylic acid] | ≤ 250 |
| COc1ccc([C@H]2CC[C@H](CN(c3cccc(-c4cnn(C5CC5)c4)c3)C(=O)[C@H]3CC[C@H](OC(=O)N4CC(CSC)C4)CC3)CC2)cc1C [Compound 4.28, trans-4-((3-(1-Cyclopropyl-1H-pyrazol-4-yl)phenyl)((trans-4-(4-methoxy-3-methylphenyl)cyclohexyl)methyl)carbamoyl)cyclohexyl 3-((methylthio)methyl)azetidine-1-carboxylate] | ≤ 250 |
| COCC1CN(C(=O)O[C@H]2CC[C@H](C(=O)N(C[C@H]3CC[C@H](c4ccc(OC)c(C)c4)CC3)c3cccc(-c4cnn(C5CC5)c4)c3)CC2)C1 [Compound 7.26, trans-4-((3-(1-Cyclopropyl-1H-pyrazol-4-yl)phenyl)((trans-4-(4-methoxy-3-methylphenyl)cyclohexyl)methyl)carbamoyl)cyclohexyl 3-(methoxymethyl)azetidine-1-carboxylate] | ≤ 250 |
| CNC(=O)O[C@H]1CC[C@H](C(=O)N(C[C@H]2CC[C@H](c3ccc(OC)c(C)c3)CC2)c2cccc(-c3ccc(N(C)C)nc3)c2)CC1 [Compound 5.36, trans-4-((3-(6-(Dimethylamino)pyridine-3-yl)phenyl)((trans-4-(4-methoxy-3-methylphenyl)cyclohexyl)methyl)carbamoyl)cyclohexyl methylcarbamate] | ≤ 250 |
| COc1ccc([C@H]2CC[C@H](CN(c3cccc(-c4cnc(C5CC5)s4)c3)C(=O)[C@H]3CC[C@H](NC(=O)Cc4c[nH]cn4)CC3)CC2)cc1C [Compound 31.15, trans-4-(2-(1H-Imidazol-4-yl)acetamido)-N-(3-(2-cyclopropylthiazol-5-yl)phenyl)-N-((trans-4-(4-methoxy-3-methylphenyl)cyclohexyl)methyl) cyclohexanecarboxamide] | ≤ 250 |
| CNC(=O)O[C@H]1CC[C@H](C(=O)N(C[C@H]2CC[C@H](c3ccc(OC)c(C)c3)CC2)c2cccc(-c3cc(C4CC4)ns3)c2)CC1 [Compound 2, trans-4-((3-(3-Cyclopropylisothiazol-5-yl)phenyl)((trans-4-(4-methoxy-3-methylphenyl)cyclohexyl)methyl)carbamoyl)cyclohexyl methylcarbamate] | ≤ 250 |
| COCCNC(=O)O[C@H]1CC[C@H](C(=O)N(C[C@H]2CC[C@H](c3ccc(OC)c(C)c3)CC2)c2cccc(-c3cnn(C4CC4)c3)c2)CC1 [Compound 6.10, trans-4-((3-(1-Cyclopropyl-1H-pyrazol-4-yl)phenyl)((trans-4-(4-methoxy-3-methylphenyl)cyclohexyl)methyl)carbamoyl)cyclohexyl (2-methoxyethyl) carbamate] | ≤ 250 |
| COc1ccc([C@H]2CC[C@H](CN(c3cccc(-c4cnc(C5CC5)s4)c3)C(=O)[C@H]3CC[C@H](NC(=O)C[S+](C)[O-])CC3)CC2)cc1C (stereo partly drawn) [Compound 31.11, trans-N-(3-(2-Cyclopropylthiazol-5-yl)phenyl)-N-((trans-4-(4-methoxy-3-methylphenyl)cyclohexyl)methyl)-4-(2-(methylsulfinyl)acetamido) cyclohexanecarboxamide] | ≤ 250 |
| CNCC(=O)N[C@H]1CC[C@H](C(=O)N(C[C@H]2CC[C@H](c3ccc(OC)c(C)c3)CC2)c2cccc(-c3cnc(C4CC4)s3)c2)CC1 [Compound 31.08, trans-N-(3-(2-Cyclopropylthiazol-5-yl)phenyl)-N-((trans-4-(4-methoxy-3-methylphenyl)cyclohexyl)methyl)-4-(2-(methylamino)acetamido) cyclohexanecarboxamide] | ≤ 250 |
| CCC(C)(O)CNC(=O)O[C@H]1CC[C@H](C(=O)N(C[C@H]2CC[C@H](c3ccc(OC)c(C)n3)CC2)c2cc(-c3coc(C4CC4)n3)ccn2)CC1 (stereo partly drawn) [Compound 6.69, trans-4-((4-(2-Cyclopropyloxazol-4-yl)pyridin-2-yl)((trans-4-(5-methoxy-6-methylpyridin-2-yl)cyclohexyl)methyl)carbamoyl)cyclohexyl (2-hydroxy-2-methylbutyl)carbamate] | ≤ 250 |
| COc1ccc([C@H]2CC[C@H](CN(c3cc(-c4coc(C5CC5)n4)ccn3)C(=O)[C@H]3CC[C@H](OC(=O)N[C@@H](C)CO)CC3)CC2)nc1C [Compound 6.93, trans-4-((4-(2-Cyclopropyloxazol-4-yl)pyridin-2-yl)((trans-4-(5-methoxy-6-methylpyridin-2-yl)cyclohexyl)methyl)carbamoyl)cyclohexyl ((S)-1-hydroxypropan-2-yl)carbamate] | ≤ 250 |

Reference: US20220089575A1, “FARNESOID X RECEPTOR AGONISTS AND USES THEREOF” (Metacrine, Inc., priority 2017, published 2022)
